# Target: STK33 (human) (UniProt Q9BYT3)
# Assay: radiometric filter-binding kinase assay, Kinase HotSpot
# Conditions: compound 0.5 µM; ATP 10 µM
row,SMILES,residual activity
1,O=C(c1ccccc1)c1ccc(N2CCOCC2)cc1O,108%
2,c1ccc(-c2cnc(Nc3ccc(OCCN4CCCC4)cc3)s2)cc1,91%

# Target: CSNK1G1 (human) (UniProt Q9HCP0)
# Assay: as above
# Conditions: compound 0.5 µM; ATP 10 µM
row,SMILES,residual activity
1,O=c1c2ccccc2[nH]c(=S)n1CCN1CCC(=C(c2ccc(F)cc2)c2ccc(F)cc2)CC1,92.5%
2,O=C(c1ccccc1)c1ccc(N2CCOCC2)cc1O,105%
3,c1ccc(-c2cnc(Nc3ccc(OCCN4CCCC4)cc3)s2)cc1,94.7%

# Target: STK3 (human) (UniProt Q13188)
# Sequence (Q13188 whole entry, looked up): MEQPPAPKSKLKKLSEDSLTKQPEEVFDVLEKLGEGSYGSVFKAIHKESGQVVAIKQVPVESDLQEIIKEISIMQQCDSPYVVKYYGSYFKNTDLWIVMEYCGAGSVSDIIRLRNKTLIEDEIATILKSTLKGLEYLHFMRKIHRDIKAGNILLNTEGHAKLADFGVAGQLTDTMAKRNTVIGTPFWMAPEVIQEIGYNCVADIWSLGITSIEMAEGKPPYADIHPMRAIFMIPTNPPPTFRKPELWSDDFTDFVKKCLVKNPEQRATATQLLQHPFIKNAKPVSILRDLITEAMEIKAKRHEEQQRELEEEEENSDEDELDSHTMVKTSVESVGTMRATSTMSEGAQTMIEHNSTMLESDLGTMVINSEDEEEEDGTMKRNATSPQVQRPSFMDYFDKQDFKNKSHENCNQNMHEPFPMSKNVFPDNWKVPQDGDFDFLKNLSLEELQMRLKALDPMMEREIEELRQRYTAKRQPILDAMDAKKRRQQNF
# Assay: as above
# Conditions: compound 0.5 µM; ATP 10 µM
row,SMILES,residual activity
1,O=c1c2ccccc2[nH]c(=S)n1CCN1CCC(=C(c2ccc(F)cc2)c2ccc(F)cc2)CC1,102%
2,O=C(c1ccccc1)c1ccc(N2CCOCC2)cc1O,100%
3,c1ccc(-c2cnc(Nc3ccc(OCCN4CCCC4)cc3)s2)cc1,108%

# Target: RPS6KA2 KD1 KD2 (human) (UniProt Q15349)
# Assay: as above
# Conditions: compound 0.5 µM; ATP 10 µM
row,SMILES,residual activity
1,O=c1c2ccccc2[nH]c(=S)n1CCN1CCC(=C(c2ccc(F)cc2)c2ccc(F)cc2)CC1,107%
2,O=C(c1ccccc1)c1ccc(N2CCOCC2)cc1O,102%
3,c1ccc(-c2cnc(Nc3ccc(OCCN4CCCC4)cc3)s2)cc1,85%

# Target: PTK2B (human) (UniProt Q14289)
# Assay: as above
# Conditions: compound 0.5 µM; ATP 10 µM
row,SMILES,residual activity
1,O=c1c2ccccc2[nH]c(=S)n1CCN1CCC(=C(c2ccc(F)cc2)c2ccc(F)cc2)CC1,98.5%
2,O=C(c1ccccc1)c1ccc(N2CCOCC2)cc1O,102%
3,c1ccc(-c2cnc(Nc3ccc(OCCN4CCCC4)cc3)s2)cc1,77.2%

# Target: TGFBR2 (human) (UniProt P37173)
# Sequence (P37173 whole entry, looked up): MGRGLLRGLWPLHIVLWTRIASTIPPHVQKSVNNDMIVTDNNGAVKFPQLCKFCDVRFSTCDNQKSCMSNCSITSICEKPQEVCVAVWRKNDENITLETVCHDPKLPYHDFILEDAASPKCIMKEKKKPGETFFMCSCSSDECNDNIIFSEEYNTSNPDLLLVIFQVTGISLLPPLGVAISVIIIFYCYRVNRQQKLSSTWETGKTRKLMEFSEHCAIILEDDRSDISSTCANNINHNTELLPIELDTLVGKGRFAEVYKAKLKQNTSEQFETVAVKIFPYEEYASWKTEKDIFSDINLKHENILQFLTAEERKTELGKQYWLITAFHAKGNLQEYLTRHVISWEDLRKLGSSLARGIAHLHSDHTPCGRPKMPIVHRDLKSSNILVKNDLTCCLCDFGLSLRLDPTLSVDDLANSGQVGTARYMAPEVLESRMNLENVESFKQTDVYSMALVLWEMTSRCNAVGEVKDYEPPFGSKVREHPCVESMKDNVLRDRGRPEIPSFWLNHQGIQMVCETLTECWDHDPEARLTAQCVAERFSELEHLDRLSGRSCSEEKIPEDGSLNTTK
# Assay: as above
# Conditions: compound 0.5 µM; ATP 10 µM
row,SMILES,residual activity
1,O=c1c2ccccc2[nH]c(=S)n1CCN1CCC(=C(c2ccc(F)cc2)c2ccc(F)cc2)CC1,119%
2,O=C(c1ccccc1)c1ccc(N2CCOCC2)cc1O,109%
3,c1ccc(-c2cnc(Nc3ccc(OCCN4CCCC4)cc3)s2)cc1,129%

# Target: SIK2 (human) (UniProt Q9H0K1)
# Assay: as above
# Conditions: compound 0.5 µM; ATP 10 µM
row,SMILES,residual activity
1,O=c1c2ccccc2[nH]c(=S)n1CCN1CCC(=C(c2ccc(F)cc2)c2ccc(F)cc2)CC1,89.7%
2,O=C(c1ccccc1)c1ccc(N2CCOCC2)cc1O,100%
3,c1ccc(-c2cnc(Nc3ccc(OCCN4CCCC4)cc3)s2)cc1,45.6%

# Target: EPHA2 (human) (UniProt P29317)
# Sequence (P29317 whole entry, looked up): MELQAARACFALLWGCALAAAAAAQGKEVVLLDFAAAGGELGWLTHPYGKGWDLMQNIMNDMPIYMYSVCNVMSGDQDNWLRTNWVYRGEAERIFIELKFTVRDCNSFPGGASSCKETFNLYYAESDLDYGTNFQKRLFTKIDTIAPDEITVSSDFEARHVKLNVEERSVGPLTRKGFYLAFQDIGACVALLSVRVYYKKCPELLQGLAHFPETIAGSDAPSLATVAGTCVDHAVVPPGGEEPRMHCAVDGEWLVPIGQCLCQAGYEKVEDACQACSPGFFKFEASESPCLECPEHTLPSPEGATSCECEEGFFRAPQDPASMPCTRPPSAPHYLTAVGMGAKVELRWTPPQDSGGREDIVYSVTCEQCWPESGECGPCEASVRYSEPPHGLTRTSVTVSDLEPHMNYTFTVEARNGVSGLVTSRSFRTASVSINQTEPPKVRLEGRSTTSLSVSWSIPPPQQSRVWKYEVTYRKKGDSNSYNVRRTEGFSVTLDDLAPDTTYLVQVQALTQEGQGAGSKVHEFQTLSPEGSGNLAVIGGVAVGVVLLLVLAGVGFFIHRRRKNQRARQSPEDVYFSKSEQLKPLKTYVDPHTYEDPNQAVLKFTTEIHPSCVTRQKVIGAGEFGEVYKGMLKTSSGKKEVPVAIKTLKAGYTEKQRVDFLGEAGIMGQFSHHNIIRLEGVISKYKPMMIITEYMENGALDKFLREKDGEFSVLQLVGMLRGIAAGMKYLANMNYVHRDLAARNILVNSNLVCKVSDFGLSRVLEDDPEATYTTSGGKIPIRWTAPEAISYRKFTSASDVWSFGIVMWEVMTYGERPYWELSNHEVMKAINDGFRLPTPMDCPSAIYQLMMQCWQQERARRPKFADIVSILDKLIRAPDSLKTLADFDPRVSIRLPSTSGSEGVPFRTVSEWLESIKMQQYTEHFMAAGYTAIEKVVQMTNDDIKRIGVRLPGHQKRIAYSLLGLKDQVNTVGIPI
# Assay: as above
# Conditions: compound 0.5 µM; ATP 10 µM
row,SMILES,residual activity
1,O=c1c2ccccc2[nH]c(=S)n1CCN1CCC(=C(c2ccc(F)cc2)c2ccc(F)cc2)CC1,105%
2,O=C(c1ccccc1)c1ccc(N2CCOCC2)cc1O,104%
3,c1ccc(-c2cnc(Nc3ccc(OCCN4CCCC4)cc3)s2)cc1,108%

# Target: PTK2 (human) (UniProt Q05397)
# Assay: as above
# Conditions: compound 0.5 µM; ATP 10 µM
row,SMILES,residual activity
1,O=c1c2ccccc2[nH]c(=S)n1CCN1CCC(=C(c2ccc(F)cc2)c2ccc(F)cc2)CC1,105%
2,O=C(c1ccccc1)c1ccc(N2CCOCC2)cc1O,109%
3,c1ccc(-c2cnc(Nc3ccc(OCCN4CCCC4)cc3)s2)cc1,98.3%

# Target: NEK2 (human) (UniProt P51955)
# Assay: as above
# Conditions: compound 0.5 µM; ATP 10 µM
row,SMILES,residual activity
1,O=c1c2ccccc2[nH]c(=S)n1CCN1CCC(=C(c2ccc(F)cc2)c2ccc(F)cc2)CC1,100%
2,O=C(c1ccccc1)c1ccc(N2CCOCC2)cc1O,101%
3,c1ccc(-c2cnc(Nc3ccc(OCCN4CCCC4)cc3)s2)cc1,90.6%

# Target: CDK9 CCNK (human) (UniProt O75909+P50750)
# Sequence (O75909 whole entry, looked up): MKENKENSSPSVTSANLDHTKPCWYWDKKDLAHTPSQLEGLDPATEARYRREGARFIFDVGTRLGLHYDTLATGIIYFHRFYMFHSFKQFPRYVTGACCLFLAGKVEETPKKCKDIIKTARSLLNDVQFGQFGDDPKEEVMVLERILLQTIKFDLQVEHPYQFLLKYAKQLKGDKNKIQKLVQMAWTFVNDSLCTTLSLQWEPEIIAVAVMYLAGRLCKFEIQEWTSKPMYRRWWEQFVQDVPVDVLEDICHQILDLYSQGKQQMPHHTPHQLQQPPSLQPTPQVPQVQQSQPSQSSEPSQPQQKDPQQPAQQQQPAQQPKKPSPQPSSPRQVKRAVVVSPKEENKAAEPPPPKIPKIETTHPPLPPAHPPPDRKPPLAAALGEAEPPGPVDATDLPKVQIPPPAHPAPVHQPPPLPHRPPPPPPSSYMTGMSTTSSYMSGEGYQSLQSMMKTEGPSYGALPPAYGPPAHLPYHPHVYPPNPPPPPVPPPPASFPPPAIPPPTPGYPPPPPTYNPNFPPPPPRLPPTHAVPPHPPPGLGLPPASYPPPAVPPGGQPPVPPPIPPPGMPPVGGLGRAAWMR
# Sequence (P50750 whole entry, looked up): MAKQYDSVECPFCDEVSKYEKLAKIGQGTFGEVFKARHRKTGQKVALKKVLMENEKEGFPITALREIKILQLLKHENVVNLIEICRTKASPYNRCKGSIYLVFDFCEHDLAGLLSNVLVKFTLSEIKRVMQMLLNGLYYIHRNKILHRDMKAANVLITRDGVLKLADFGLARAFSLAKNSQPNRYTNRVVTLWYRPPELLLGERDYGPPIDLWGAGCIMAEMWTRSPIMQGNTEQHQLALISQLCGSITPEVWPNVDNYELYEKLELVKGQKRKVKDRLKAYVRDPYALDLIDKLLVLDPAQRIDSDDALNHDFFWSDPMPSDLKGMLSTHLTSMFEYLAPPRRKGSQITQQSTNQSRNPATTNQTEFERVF
# Assay: as above
# Conditions: compound 0.5 µM; ATP 10 µM
row,SMILES,residual activity
1,O=c1c2ccccc2[nH]c(=S)n1CCN1CCC(=C(c2ccc(F)cc2)c2ccc(F)cc2)CC1,104%
2,O=C(c1ccccc1)c1ccc(N2CCOCC2)cc1O,97.8%
3,c1ccc(-c2cnc(Nc3ccc(OCCN4CCCC4)cc3)s2)cc1,39.8%

# Target: CAMKK1 (human) (UniProt Q8N5S9)
# Sequence (Q8N5S9 whole entry, looked up): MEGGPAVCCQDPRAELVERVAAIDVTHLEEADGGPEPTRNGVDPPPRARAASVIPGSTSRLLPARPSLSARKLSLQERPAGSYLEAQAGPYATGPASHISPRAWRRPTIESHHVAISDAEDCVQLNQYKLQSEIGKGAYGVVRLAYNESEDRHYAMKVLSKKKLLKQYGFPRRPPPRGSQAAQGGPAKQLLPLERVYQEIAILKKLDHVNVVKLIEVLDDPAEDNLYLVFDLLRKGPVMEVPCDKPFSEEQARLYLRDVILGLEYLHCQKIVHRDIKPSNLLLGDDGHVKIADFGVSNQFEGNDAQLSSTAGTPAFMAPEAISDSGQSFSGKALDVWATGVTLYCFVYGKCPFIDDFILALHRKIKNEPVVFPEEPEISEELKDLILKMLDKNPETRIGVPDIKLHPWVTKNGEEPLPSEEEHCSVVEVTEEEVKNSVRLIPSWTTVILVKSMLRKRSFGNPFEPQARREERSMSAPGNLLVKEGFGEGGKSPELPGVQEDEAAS
# Assay: as above
# Conditions: compound 0.5 µM; ATP 10 µM
row,SMILES,residual activity
1,O=c1c2ccccc2[nH]c(=S)n1CCN1CCC(=C(c2ccc(F)cc2)c2ccc(F)cc2)CC1,110%
2,O=C(c1ccccc1)c1ccc(N2CCOCC2)cc1O,107%
3,c1ccc(-c2cnc(Nc3ccc(OCCN4CCCC4)cc3)s2)cc1,56.6%

# Target: ADRBK1 (human) (UniProt P25098)
# Assay: as above
# Conditions: compound 0.5 µM; ATP 10 µM
row,SMILES,residual activity
1,O=c1c2ccccc2[nH]c(=S)n1CCN1CCC(=C(c2ccc(F)cc2)c2ccc(F)cc2)CC1,100%
2,O=C(c1ccccc1)c1ccc(N2CCOCC2)cc1O,99.6%
3,c1ccc(-c2cnc(Nc3ccc(OCCN4CCCC4)cc3)s2)cc1,95.8%

# Target: HIPK3 (human) (UniProt Q9H422)
# Assay: as above
# Conditions: compound 0.5 µM; ATP 10 µM
row,SMILES,residual activity
1,O=c1c2ccccc2[nH]c(=S)n1CCN1CCC(=C(c2ccc(F)cc2)c2ccc(F)cc2)CC1,97.7%
2,O=C(c1ccccc1)c1ccc(N2CCOCC2)cc1O,98.1%
3,c1ccc(-c2cnc(Nc3ccc(OCCN4CCCC4)cc3)s2)cc1,64.8%

# Target: PRKCA (human) (UniProt P17252)
# Assay: as above
# Conditions: compound 0.5 µM; ATP 10 µM
row,SMILES,residual activity
1,O=c1c2ccccc2[nH]c(=S)n1CCN1CCC(=C(c2ccc(F)cc2)c2ccc(F)cc2)CC1,73.1%
2,O=C(c1ccccc1)c1ccc(N2CCOCC2)cc1O,84.2%
3,c1ccc(-c2cnc(Nc3ccc(OCCN4CCCC4)cc3)s2)cc1,106%

# Target: CDK1 CCNA2 (human) (UniProt P06493+P20248)
# Sequence (P06493 whole entry, looked up): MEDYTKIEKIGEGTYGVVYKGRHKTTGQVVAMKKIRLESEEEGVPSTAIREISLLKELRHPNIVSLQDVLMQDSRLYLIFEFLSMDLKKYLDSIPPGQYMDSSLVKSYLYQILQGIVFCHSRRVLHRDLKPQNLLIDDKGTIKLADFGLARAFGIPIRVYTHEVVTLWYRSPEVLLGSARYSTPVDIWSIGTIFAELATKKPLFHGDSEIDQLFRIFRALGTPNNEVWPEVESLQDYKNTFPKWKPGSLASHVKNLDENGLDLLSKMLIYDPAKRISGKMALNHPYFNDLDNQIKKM
# Sequence (P20248 whole entry, looked up): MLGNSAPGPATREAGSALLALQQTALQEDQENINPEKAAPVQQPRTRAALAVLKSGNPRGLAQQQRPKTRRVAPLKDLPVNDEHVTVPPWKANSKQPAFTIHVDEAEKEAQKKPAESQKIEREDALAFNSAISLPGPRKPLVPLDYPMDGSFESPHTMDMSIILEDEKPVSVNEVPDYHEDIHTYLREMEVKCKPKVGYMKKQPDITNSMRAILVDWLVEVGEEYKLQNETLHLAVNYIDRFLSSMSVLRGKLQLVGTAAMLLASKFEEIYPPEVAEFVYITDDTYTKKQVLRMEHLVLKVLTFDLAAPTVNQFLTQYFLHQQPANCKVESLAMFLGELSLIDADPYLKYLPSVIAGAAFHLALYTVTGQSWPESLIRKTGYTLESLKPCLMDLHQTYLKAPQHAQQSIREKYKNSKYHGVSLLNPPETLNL
# Assay: as above
# Conditions: compound 0.5 µM; ATP 10 µM
row,SMILES,residual activity
1,O=c1c2ccccc2[nH]c(=S)n1CCN1CCC(=C(c2ccc(F)cc2)c2ccc(F)cc2)CC1,96.8%
2,O=C(c1ccccc1)c1ccc(N2CCOCC2)cc1O,103%
3,c1ccc(-c2cnc(Nc3ccc(OCCN4CCCC4)cc3)s2)cc1,95.2%

# Target: SYK (human) (UniProt P43405)
# Assay: as above
# Conditions: compound 0.5 µM; ATP 10 µM
row,SMILES,residual activity
1,O=c1c2ccccc2[nH]c(=S)n1CCN1CCC(=C(c2ccc(F)cc2)c2ccc(F)cc2)CC1,93.2%
2,O=C(c1ccccc1)c1ccc(N2CCOCC2)cc1O,96.6%
3,c1ccc(-c2cnc(Nc3ccc(OCCN4CCCC4)cc3)s2)cc1,89.2%

# Target: TNK2 (human) (UniProt Q07912)
# Assay: as above
# Conditions: compound 0.5 µM; ATP 10 µM
row,SMILES,residual activity
1,O=c1c2ccccc2[nH]c(=S)n1CCN1CCC(=C(c2ccc(F)cc2)c2ccc(F)cc2)CC1,105%
2,O=C(c1ccccc1)c1ccc(N2CCOCC2)cc1O,104%
3,c1ccc(-c2cnc(Nc3ccc(OCCN4CCCC4)cc3)s2)cc1,66.6%

# Target: CDK6 CCND1 (human) (UniProt Q00534+P24385)
# Sequence (P24385 whole entry, looked up): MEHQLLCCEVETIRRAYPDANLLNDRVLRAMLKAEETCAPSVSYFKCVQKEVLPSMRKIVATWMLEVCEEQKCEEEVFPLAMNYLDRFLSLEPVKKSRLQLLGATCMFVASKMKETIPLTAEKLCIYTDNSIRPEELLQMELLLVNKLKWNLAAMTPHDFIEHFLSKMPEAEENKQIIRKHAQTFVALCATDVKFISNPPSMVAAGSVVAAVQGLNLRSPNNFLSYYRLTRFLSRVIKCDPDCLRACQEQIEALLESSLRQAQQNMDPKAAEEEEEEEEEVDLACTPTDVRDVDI
# Sequence (Q00534 whole entry, looked up): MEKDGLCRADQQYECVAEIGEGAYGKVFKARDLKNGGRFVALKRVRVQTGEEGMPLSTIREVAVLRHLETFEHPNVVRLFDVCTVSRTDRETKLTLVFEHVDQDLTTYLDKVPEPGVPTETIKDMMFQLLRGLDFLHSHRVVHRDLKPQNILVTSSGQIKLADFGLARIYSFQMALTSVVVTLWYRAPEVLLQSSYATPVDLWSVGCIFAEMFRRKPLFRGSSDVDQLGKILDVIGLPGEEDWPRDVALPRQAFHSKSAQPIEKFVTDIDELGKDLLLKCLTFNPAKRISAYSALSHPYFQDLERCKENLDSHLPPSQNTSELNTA
# Assay: as above
# Conditions: compound 0.5 µM; ATP 10 µM
row,SMILES,residual activity
1,O=c1c2ccccc2[nH]c(=S)n1CCN1CCC(=C(c2ccc(F)cc2)c2ccc(F)cc2)CC1,98.7%
2,O=C(c1ccccc1)c1ccc(N2CCOCC2)cc1O,97.8%
3,c1ccc(-c2cnc(Nc3ccc(OCCN4CCCC4)cc3)s2)cc1,40.3%

# Target: MLTK (human) (UniProt Q9NYL2)
# Assay: as above
# Conditions: compound 0.5 µM; ATP 10 µM
row,SMILES,residual activity
1,O=c1c2ccccc2[nH]c(=S)n1CCN1CCC(=C(c2ccc(F)cc2)c2ccc(F)cc2)CC1,98.6%
2,O=C(c1ccccc1)c1ccc(N2CCOCC2)cc1O,95%
3,c1ccc(-c2cnc(Nc3ccc(OCCN4CCCC4)cc3)s2)cc1,25.9%

# Target: STK25 (human) (UniProt O00506)
# Assay: as above
# Conditions: compound 0.5 µM; ATP 10 µM
row,SMILES,residual activity
1,O=c1c2ccccc2[nH]c(=S)n1CCN1CCC(=C(c2ccc(F)cc2)c2ccc(F)cc2)CC1,96.6%
2,O=C(c1ccccc1)c1ccc(N2CCOCC2)cc1O,100%
3,c1ccc(-c2cnc(Nc3ccc(OCCN4CCCC4)cc3)s2)cc1,95.5%
